Source: patent US20050239656A1, “Pyridine compounds or salts thereof and herbicides containing the same” (priority 2002, published 2005)

Columns and labels:
[1] = system: soybean; assay: Test Example 2: soil surface treatment, upland pot test; type: in vivo, Glycine max Merr.; conditions: observed 20th to 28th day
Procedure, shortened: (§1)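 Pots (1/170,000 ha) filled with upland field soil were seeded, then treated on the following day by spraying the soil surface with diluted formulation (1,500 L/ha) at a fixed a.i. dose. Control was rated visually on a 0–100% scale at 20–28 days.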

[2] = system: green foxtail; assay: as above; type: in vivo, Setaria viridis L.; conditions: observed 20th to 28th day
Procedure, shortened: as §1

[3] = system: wheat; assay: as above; type: in vivo, Triticum spp.; conditions: observed 20th to 28th day
From the text: Upland field soil was put into a 1/170,000 ha pot, and seed of various plants (barnyardgrass, crabgrass, green foxtail, redroot pigweed, prickly sida, velvetleaf, rice, wheat, corn, soybean) were sown. On the 1st day after the sowing, a wettable powder or emulsifiable concentrate having the compound of the present invention formulated in accordance with a usual formulation method, was weighed so that the active ingredient would be a predetermined amount, and diluted with water in an amount of 1,500 L/ha. The herbicide thus adjusted was applied by a small size sprayer for soil surface treatment. On the 20th to 28th days after the application of the herbicide, the growth of the respective plants was visually observed, and the herbicidal effects were evaluated by the growth controlling degrees (%) ranging from 0 (equivalent to the non-treated plot) to 100 (complete kill), whereby the results shown in Table 4, were obtained.

[4] = system: barnyardgrass; assay: as above; type: in vivo, Echinochloa crus-galli L.; conditions: observed 20th to 28th day
Procedure, shortened: as §1

[5] = system: barnyardgrass; assay: Test Example 3: paddy pot test, application under submerged conditions; type: in vivo, Echinochloa crus-galli L.; conditions: submerged application at 0.5 leaf stage, visually observed 14 days after application, 0 = non-treated, 100 = complete kill
Procedure, shortened: (§2)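 Seeds were sown in flooded paddy soil (0.5–1 cm water), wapato tubers were planted 1–2 days later, and water was then held at 3–4 cm. Diluted wettable powder or emulsifiable concentrate was pipetted into the water at the 0.5 leaf or primary leaf stage. Growth control was visually scored at 14 days (0–100%).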

[6] = system: velvetleaf; assay: Test Example 2: soil surface treatment, upland pot test; type: in vivo, Abutilon theophrasti MEDIC.; conditions: observed 20th to 28th day
Procedure, shortened: as §1

[7] = system: redroot pigweed; assay: as above; type: in vivo, Amaranthus retroflexus L.; conditions: observed 20th to 28th day
Procedure, shortened: as §1

[8] = system: rice; assay: as above; type: in vivo, Oryza sativa L.; conditions: observed 20th to 28th day
Procedure, shortened: as §1

[9] = system: rice (var. Nihonbare); assay: Test Example 3: paddy pot test, transplanted rice; type: in vivo, Oryza sativa L.; conditions: applied 4th day after transplantation, visually observed 21st day after application, 0 = non-treated, 100 = complete kill
Procedure, shortened: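 Rice (2-leaf stage) was transplanted 3 cm deep into puddled, leveled paddy soil under 3–4 cm flooding. On day 4 after transplanting, diluted wettable powder or emulsifiable concentrate was pipetted onto the water at a predetermined active-ingredient dose. Growth control (0 = untreated, 100 = complete kill) was scored visually 21 days later.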

[10] = system: prickly sida; assay: Test Example 2: soil surface treatment, upland pot test; type: in vivo, Sida spinosa L.; conditions: observed 20th to 28th day
Procedure, shortened: as §1

[11] = system: japanese ribbon wapato; assay: Test Example 3: paddy pot test, application under submerged conditions; type: in vivo, Sagittaria pygniaea; conditions: submerged application at primary leaf stage, visually observed 14 days after application, 0 = non-treated, 100 = complete kill
Procedure, shortened: as §2

[12] = system: crabgrass; assay: Test Example 2: soil surface treatment, upland pot test; type: in vivo, Digitaria sanguinalis L.; conditions: observed 20th to 28th day
Procedure, shortened: as §1

[13] = system: japanese bulrush; assay: Test Example 3: paddy pot test, application under submerged conditions; type: in vivo, Scirpus juncoides; conditions: submerged application at 0.5 leaf stage, visually observed 14 days after application, 0 = non-treated, 100 = complete kill
Procedure, shortened: as §2

[14] = system: corn; assay: Test Example 2: soil surface treatment, upland pot test; type: in vivo, Zea mays L.; conditions: observed 20th to 28th day
Procedure, shortened: as §1

[15] = active ingredient 1000 g/ha, 0 = non-treated, 100 = complete kill

SMILES | Growth controlling degree (%) Soyabean ([1]; active ingredient 1000 g/ha) | Growth controlling degree (%) Green foxtail ([2]; active ingredient 1000 g/ha) | Growth controlling degree (%) wheat ([3]; active ingredient 1000 g/ha) | Growth controlling degree (%) Barnyardgrass [4, 15] | Growth controlling degree (%) Velvetleaf ([6]; active ingredient 1000 g/ha) | Growth controlling degree (%) Redroot pigweed ([7]; active ingredient 1000 g/ha) | Growth controlling degree (%) Rice ([8]; active ingredient 1000 g/ha) | Growth controlling degree (%) Prickly sida ([10]; active ingredient 1000 g/ha) | Growth controlling degree (%) Crabgrass ([12]; active ingredient 1000 g/ha) | Growth controlling degree (%) Corn ([14]; active ingredient 1000 g/ha) | Growth controlling degree (%) Barnyardgrass ([5]; active ingredient 500 g/ha) | Growth controlling degree (%) Rice ([9]; active ingredient 500 g/ha) | Growth controlling degree (%) Japanese ribbon wapato ([11]; active ingredient 500 g/ha) | Growth controlling degree (%) Japanese bulrush ([13]; active ingredient 500 g/ha) | further results
CC(C)C(NC(=O)Cc1ccccc1)c1cnccc1C(F)(F)F (stereo not drawn) [Compound I-3] | 0% | 90% | 0% | 0% | 0% | 20% | 10% | 10% | 90% | 0% |  |  |  |  | Growth controlling degree (%) Barnyardgrass ([5]; active ingredient 1000 g/ha): 90%; Growth controlling degree (%) Rice ([9]; active ingredient 1000 g/ha): 20%; Growth controlling degree (%) Japanese ribbon wapato ([11]; active ingredient 1000 g/ha): 30%; Growth controlling degree (%) Japanese bulrush ([13]; active ingredient 1000 g/ha): 98%
CC(C)C(NC(=O)Cc1c(F)cccc1F)c1cnccc1C(F)(F)F (stereo not drawn) [Compound I-5] | 10% | 70% | 10% | 30% | 0% | 0% | 10% | 0% | 90% | 20% | 60% | 20% | 50% | 90% | 
CC(C)C(NC(=O)Cc1ccc(Br)cc1)c1cnccc1C(F)(F)F (stereo not drawn) [Compound I-8] | 30% | 50% | 30% | 50% | 0% | 80% | 10% | 50% | 50% | 10% | 90% | 0% | 10% | 90% | 
CC(C(=O)NC(c1cnccc1C(F)(F)F)C(C)C)c1ccccc1 (stereo not drawn) [Compound I-11] | 0% | 90% | 50% | 98% | 0% | 0% | 0% | 0% | 90% | 10% | 60% | 10% | 30% | 90% | 
CC(C)C(c1cnccc1C(F)(F)F)N(C)C(=O)Cc1cccc(F)c1 (stereo not drawn) [Compound I-20] |  |  |  |  |  |  |  |  |  |  |  | 40% | 90% | 90% | Growth controlling degree (%) Soyabean ([1]; active ingredient 500 g/ha): 30%; Growth controlling degree (%) Green foxtail ([2]; active ingredient 500 g/ha): 100%; Growth controlling degree (%) wheat ([3]; active ingredient 500 g/ha): 40%; Growth controlling degree (%) Barnyardgrass ([4]; active ingredient 500 g/ha): 100%; Growth controlling degree (%) Velvetleaf ([6]; active ingredient 500 g/ha): 100%; Growth controlling degree (%) Redroot pigweed ([7]; active ingredient 500 g/ha): 95%; Growth controlling degree (%) Rice ([8]; active ingredient 500 g/ha): 0%; Growth controlling degree (%) Prickly sida ([10]; active ingredient 500 g/ha): 100%; Growth controlling degree (%) Crabgrass ([12]; active ingredient 500 g/ha): 100%; Growth controlling degree (%) Corn ([14]; active ingredient 500 g/ha): 70%
